The record followed here is patent US20230404979A1, “ALPHA-2 […] RECEPTOR AGONISTS TO REDUCE MORTALITY AND IMPROVE OUTCOMES IN VIRAL R[…]” (RUSH UNIVERSITY MEDICAL CENTER, priority 2020, published 2023).

Read-outs that look alike come from different tables or passages of the source.

Test [1] relates to patients with COVID-19 requiring sedation and invasive mechanical ventilation.
Description: (§1) Data was collected from electronic medical records (EMRs) of Rush University hospitals: Rush University Medical Center; Rush Copley Medical Center; and Rush Oak Park Hospital. Deidentified data was collected from the EMRs by the Rush Bioinformatics and Biostatistics Core. This retrospective cohort study received expedited approval by the Institutional Review Board at Rush University Medical Center.
We identified patients that were hospitalized at Rush University from Mar. […] Corticosteroids were not excluded because at the time of the study there were no standard practices or guidelines for using this medication in the study population at Rush. Clinical outcomes were assessed from the time of admission to the time of discharge.
We evaluated patients in each group for age, gender, race, ethnicity, and comorbidities at admission. […] Directly prior to intubation, a sequential organ failure assessment score (SOFA) was calculated for each group, and a PaO2/FiO2 (mmHg) was separately assessed.
Our primary tool to assess 28-day mortality was multivariable Cox proportional hazards regression.
(§2) For continuous variables, independent samples t-tests were performed. For each continuous variable, a Levene's test for equality of variances was performed. With significance on Levene's test for heterogeneity of variances, a Mann-Whitney U test was performed. […] Categorical variables were assessed with a Pearson's chi-squared test. If any expected count in a 2×2 table was less than 5, a Fisher's exact test was performed. […] We used p≤0.05 as the threshold for significance.
Simple imputation using the mean of the immediate preceding and succeeding most severe value over 24 hours was used for missing values for Pao2/Flo2 and mSOFA scores within the 24 hour time period of interest (intubation) (11-13). A complete case analysis was performed (14). All analyses were performed using SPSS version 27.
For test [2] the test system is unchanged. To be noted: for Hospital length of stay / ICU Free days at day 60 / ICU time / Intubation time / Ventilator free days at day 60: mean.
Description: as §1
We identified patients that were hospitalized at Rush University from Mar. 1, 2020 to Jul. 30, 2020. […] Corticosteroids were not excluded because at the time of the study there were no standard practices or guidelines for using this medication in the study population at Rush. Clinical outcomes were assessed from the time of admission to the time of discharge.
as §2
The mark [3] stands for this setting: 90% or greater vs less than 90%.
The mark [4] stands for this setting: time on dexmedetomidine/time on intubation 90% or greater (n=30).
[5] abbreviates: time on dexmedetomidine/time on intubation less than 90% (n=122).

For `Cc1cccc([C@H](C)c2cnc[nH]2)c1C` [DEX, dexmedetomidine], the “relative risk reduction (28-day mortality)” value in test [1] (DEX cohort vs cohort that did not receive DEX, 95% CI 42.4-69.6%) came to 58.2%. The compound further displayed a 28-day mortality in test [1] (from start time of intubation, cohort receiving DEX (n=152)) of 27.0%. The “landmark analysis of 28-day mortality by start time of DEX” value in test [1] (time cut-offs days 1-22 from intubation, earlier DEX use) is “lower aHRs and increased significance”. Besides, in test [1] (univariable Cox regression with DEX use as time-varying covariate, (95% CI)), the “28-day mortality aHR” value is 0.56. Also, in test [2] (90% or greater (n=30)), the “Hospital length of stay” value is 24.37 days, the “ICU Free days at day 60” value is given as 36.45, the ICU time is recorded as 18.76 days and the Intubation time is listed as 9.61 days. Further, the “Ventilator free days at day 60” value in test [2] (90% or greater (n=30)) is given as 43.63. Further, in test [2] (setting [3]), the “Hospital length of stay, Difference Between Groups” value is -1.38 days; the “ICU Free days at day 60, Difference Between Groups” value is given as 11.48; the “ICU time, Difference Between Groups” value was -1.83 days; the “Intubation time, Difference Between Groups” value was -5.92 days. For the same compound, the “Ventilator free days at day 60, Difference Between Groups” value in test [2] (setting [3]) was 15.55. The “In-hospital mortality, Risk Ratio” value in test [2] (90% or greater vs less than 90% of intubation time on dexmedetomidine) was 0.277. Further, in test [2] (less than 90% (n=122)), the “Hospital length of stay” value worked out at 25.75 days, the “ICU Free days at day 60” value is 24.98, the ICU time is 20.59 days and the Intubation time is 15.53 days. The “Ventilator free days at day 60” value in test [2] (less than 90% (n=122)) is recorded as 28.08. For the same compound, in test [2] (setting [4]), the “In-hospital mortality (%)” value was “(10.0%)” and the “In-hospital mortality (count)” value is 3/30. Also, in test [2] (setting [5]), the “In-hospital mortality (%)” value was “(36.1%)” and the “In-hospital mortality (count)” value is reported as 44/122.
